# Laboratory results reported in ChEMBL document CHEMBL1122784, “Antitumor imidazotetrazines. 1. Synthesis and chemistry of 8-carbamoyl-3-(2-chloroethyl)imidazo[5,1-d]-1,2,3,5-tetrazin-4(3 H)-one , a novel broad-spectrum antitumor agent” (J Med Chem, 1984).
# Experiments:
# [1] = Half-life period in 95% ethanol in dark at 28 degrees celsius.; assay type: ADME
# Mus musculus [2] = test: Compound was evaluated for %T/C in P388 leukemia implanted BDF1 mice on day 0 after ip administration of 5 mg/kg/day on day 1; assay type: functional; settings: route intraperitoneal
# Mus musculus [3] = test: Compound was tested for mortality in P388 leukemia implanted BDF1 mice on day 0 after ip administration of 10 mg/kg/day on day 1-5 out of 5 mice; assay type: functional; settings: route intraperitoneal
# Mus musculus [4] = test: Compound was evaluated for %T/C in P388 leukemia implanted BDF1 mice on day 0 after ip administration of 5 mg/kg/day on day 1-5; assay type: functional; settings: route intraperitoneal
# Mus musculus [5] = test: Compound was evaluated for %T/C in L1210 leukemia implanted BDF1 mice on day 0 after ip administration of 2.5 mg/kg/day on day 1-5; assay type: functional; settings: route intraperitoneal
# Mus musculus [6] = test: Compound was evaluated for number of survivors in L1210 leukemia implanted BDF1 mice on day 0 after ip administration of 6.25 mg/kg/day on day 60 out of 6 mice; assay type: functional; settings: route intraperitoneal
# Mus musculus [7] = test: Compound was evaluated for number of survivors in P388 leukemia implanted BDF1 mice on day 0 after ip administration of 80 mg/kg/day on day 60 out of 5 mice; assay type: functional; settings: route intraperitoneal
# Mus musculus [8] = test: Compound was evaluated for %T/C in P388 leukemia implanted BDF1 mice on day 0 after ip administration of 50 mg/kg/day on day 1-5; assay type: functional; settings: route intraperitoneal
# Mus musculus [9] = test: Compound was evaluated for number of survivors in P388 leukemia implanted BDF1 mice on day 0 after ip administration of 20 mg/kg/day on day 60 out of 5 mice; assay type: functional; settings: route intraperitoneal
# Mus musculus [10] = test: Compound was tested for mortality in L1210 leukemia implanted BDF1 mice on day 0 after ip administration of 10 mg/kg/day on day 1 out of 5 mice; assay type: functional; settings: route intraperitoneal
# Mus musculus [11] = test: Compound was tested for mortality in L1210 leukemia implanted BDF1 mice on day 0 after ip administration of 50 mg/kg/day on day 1-9 out of 6 mice; assay type: functional; settings: route intraperitoneal
# Mus musculus [12] = test: Compound was evaluated for number of survivors in P388 leukemia implanted BDF1 mice on day 0 after ip administration of 50 mg/kg/day on day 60 out of 5 mice; assay type: functional; settings: route intraperitoneal
# Mus musculus [13] = test: Compound was evaluated for %T/C in L1210 leukemia implanted BDF1 mice on day 0 after ip administration of 20 mg/kg/day on days 1-5; assay type: functional; settings: route intraperitoneal
# Mus musculus [14] = test: Compound was evaluated for %T/C in L1210 leukemia implanted BDF1 mice on day 0 after ip administration of 10 mg/kg/day on day 1; assay type: functional; settings: route intraperitoneal
# Mus musculus [15] = test: Compound was evaluated for number of survivors in L1210 leukemia implanted BDF1 mice on day 0 after ip administration of 5 mg/kg/day on day 60 out of 5 mice; assay type: functional; settings: route intraperitoneal
# Mus musculus [16] = test: Compound was evaluated for %T/C in L1210 leukemia implanted BDF1 mice on day 0 after ip administration of 25 mg/kg/day on day 1-9; assay type: functional; settings: route intraperitoneal
# Mus musculus [17] = test: Compound was tested for mortality in P388 leukemia implanted BDF1 mice on day 0 after ip administration of 10 mg/kg/day on day 1 out of 5 mice; assay type: functional; settings: route intraperitoneal
# Mus musculus [18] = test: Compound was tested for mortality in L1210 leukemia implanted BDF1 mice on day 0 after ip administration of 25 mg/kg/day on day 1-9 out of 6 mice; assay type: functional; settings: route intraperitoneal
# Mus musculus [19] = test: Compound was evaluated for number of survivors in L1210 leukemia implanted BDF1 mice on day 0 after ip administration of 80 mg/kg/day on day 60 out of 5 mice; assay type: functional; settings: route intraperitoneal
# Mus musculus [20] = test: Compound was evaluated for %T/C in L1210 leukemia implanted BDF1 mice on day 0 after ip administration of 3.12 mg/kg/day on day 1-9; assay type: functional; settings: route intraperitoneal
# Mus musculus [21] = test: (§1) Compound was evaluated for number of survivors in L1210 leukemia implanted BDF1 mice on day 0 after ip administration of 20 mg/kg/day on day 60 out of 5 mice; assay type: functional; settings: route intraperitoneal
# Mus musculus [22] = test: Compound was tested for mortality in L1210 leukemia implanted BDF1 mice on day 0 after ip administration of 40 mg/kg/day on day 1 out of 5 mice; assay type: functional; settings: route intraperitoneal
# Mus musculus [23] = test: Compound was evaluated for %T/C in L1210 leukemia implanted BDF1 mice on day 0 after ip administration of 10 mg/kg/day on day 1-5; assay type: functional; settings: route intraperitoneal
# Mus musculus [24] = test: Compound was tested for mortality in L1210 leukemia implanted BDF1 mice on day 0 after ip administration of 20 mg/kg/day on days 1-5 out of 5 mice; assay type: functional; settings: route intraperitoneal
# Mus musculus [25] = test: Compound was tested for mortality in P388 leukemia implanted BDF1 mice on day 0 after ip administration of 5 mg/kg/day on day 1-5 out of 5 mice; assay type: functional; settings: route intraperitoneal
# Mus musculus [26] = test: Compound was evaluated for number of survivors in L1210 leukemia implanted BDF1 mice on day 0 after ip administration of 2.5 mg/kg/day on day 60 out of 5 mice; assay type: functional; settings: route intraperitoneal
# Mus musculus [27] = test: Compound was evaluated for %T/C in P388 leukemia implanted BDF1 mice on day 0 after ip administration of 20 mg/kg/day on day 1-5; assay type: functional; settings: route intraperitoneal
# Mus musculus [28] = test: Compound was evaluated for %T/C in P388 leukemia implanted BDF1 mice on day 0 after ip administration of 20 mg/kg/day on day 1; assay type: functional; settings: route intraperitoneal
# Mus musculus [29] = test: Compound was evaluated for %T/C in P388 leukemia implanted BDF1 mice on day 0 after ip administration of 10 mg/kg/day on day 1; assay type: functional; settings: route intraperitoneal
# Mus musculus [30] = test: Compound was tested for mortality in P388 leukemia implanted BDF1 mice on day 0 after ip administration of 2.5 mg/kg/day on day 1-5 out of 5 mice; assay type: functional; settings: route intraperitoneal
# Mus musculus [31] = test: Compound was evaluated for %T/C in P388 leukemia implanted BDF1 mice on day 0 after ip administration of 80 mg/kg/day on day 1; assay type: functional; settings: route intraperitoneal
# Mus musculus [32] = test: Compound was evaluated for number of survivors in P388 leukemia implanted BDF1 mice on day 0 after ip administration of 40 mg/kg/day on day 60 out of 5 mice; assay type: functional; settings: route intraperitoneal
# Mus musculus [33] = test: Compound was evaluated for %T/C in P388 leukemia implanted BDF1 mice on day 0 after ip administration of 12.5 mg/kg/day on day 1-5; assay type: functional; settings: route intraperitoneal
# Mus musculus [34] = test: Compound was tested for mortality in L1210 leukemia implanted BDF1 mice on day 0 after ip administration of 20 mg/kg/day on day 1 out of 5 mice; assay type: functional; settings: route intraperitoneal
# Mus musculus [35] = test: as §1; assay type: functional; settings: route intraperitoneal; remark: listed apart in the source
# Mus musculus [36] = test: Compound was evaluated for number of survivors in L1210 leukemia implanted BDF1 mice on day 0 after ip administration of 12.5 mg/kg/day on day 60 out of 6 mice; assay type: functional; settings: route intraperitoneal
# Mus musculus [37] = test: Compound was evaluated for number of survivors in L1210 leukemia implanted BDF1 mice on day 0 after ip administration of 7.5 mg/kg/day on day 60 out of 5 mice; assay type: functional; settings: route intraperitoneal
# Mus musculus [38] = test: Compound was evaluated for number of survivors in L1210 leukemia implanted BDF1 mice on day 0 after ip administration of 40 mg/kg/day on day 60 out of 5 mice; assay type: functional; settings: route intraperitoneal
# Mus musculus [39] = test: Compound was tested for mortality in L1210 leukemia implanted BDF1 mice on day 0 after ip administration of 6.25 mg/kg/day on day 1-9 out of 6 mice; assay type: functional; settings: route intraperitoneal
# Mus musculus [40] = test: Compound was evaluated for %T/C in L1210 leukemia implanted BDF1 mice on day 0 after ip administration of 50 mg/kg/day on day 1-9; assay type: functional; settings: route intraperitoneal
smiles,measurement,setting,value
NC(=O)c1ncn2c(=O)n(CCCl)nnc12 [MITOZOLOMIDE],half-life,[1],1.2 h
same,T/C,Mus musculus [2],132%
same,Mortality,Mus musculus [3],0
same,T/C,Mus musculus [4],277%
same,T/C,Mus musculus [5],112%
same,Survivors,Mus musculus [6],0
same,Survivors,Mus musculus [7],0
same,T/C,Mus musculus [8],153%
same,Survivors,Mus musculus [9],5
same,Mortality,Mus musculus [10],0
same,Mortality,Mus musculus [11],0
same,Survivors,Mus musculus [12],0
same,T/C,Mus musculus [13],>577%
same,T/C,Mus musculus [14],131%
same,Survivors,Mus musculus [15],0
same,T/C,Mus musculus [16],>745%
same,Mortality,Mus musculus [17],0
same,Mortality,Mus musculus [18],0
same,Survivors,Mus musculus [19],0
same,T/C,Mus musculus [20],147%
same,Survivors,Mus musculus [21],5
same,Mortality,Mus musculus [22],0
same,T/C,Mus musculus [23],>577%
same,Mortality,Mus musculus [24],0
same,Mortality,Mus musculus [25],0
same,Survivors,Mus musculus [26],0
same,T/C,Mus musculus [27],>555%
same,T/C,Mus musculus [28],>600%
same,T/C,Mus musculus [29],164%
same,Mortality,Mus musculus [30],0
same,T/C,Mus musculus [31],74%
same,Survivors,Mus musculus [32],5
same,T/C,Mus musculus [33],275%
same,Mortality,Mus musculus [34],0
same,Survivors,Mus musculus [35],1
same,Survivors,Mus musculus [36],6
same,Survivors,Mus musculus [37],0
same,Survivors,Mus musculus [38],5
same,Mortality,Mus musculus [39],0
same,T/C,Mus musculus [40],137%
